Drawing on patent publication US11883419B2, “DNA polymerase gamma inhibitor and uses thereof” (ACIBADEM MEHMET ALI AYDINLAR UNIVERSITESI, priority 2018, dated 2024), this text covers Tumor volume, IC50 and Tumor growth for one compound.

pIC50: −log10 of the molar value.

The subject of one data set is HCT116 xenograft. The experiment in a line: HCT116 xenograft study in nude mice. The format is in vivo. The conditions noted are these: all doses. From the text:
Tumor volume (mm^3) vs days the graph is indicated in FIG. 6 (a), body weight vs days after injection graph is in FIG. 6 (b), and FIG. 6 (c) is HCT116 Control vs […] image.

The test system of a further data set is HCT116 (MLH1 deficient). The experiment in a line: xCELLigence real time cell proliferation/cytotoxicity. Particulars: read-out: IC50, cytotoxicity; HCT116, 5, 10, 20 μM, 72 h, RTCA software.
The subject of another data set is Lovo xenograft. The data set can be described thus: Lovo xenograft study in nude mice. The format is in vivo.

One may read the pIC50 as the IC50 on a negative log10 scale, so that one unit is a factor of ten. `Nc1c(/N=N/c2ccc(-c3ccc(/N=N/c4cc(S(=O)(=O)O)c5ccccc5c4N)cc3)cc2)cc(S(=O)(=O)O)c2ccccc12` [Formula II]: in the data set on HCT116 xenograft, the Tumor volume result is reported as “decreased tumor volume in all doses”. For the same compound, the pIC50 with HCT116 (MLH1 deficient) was 5.28. Moreover, in the data set on Lovo xenograft, the Tumor growth result is “did not affect the tumor growth”.
